Test results: patent US20070287752A1, “Ophthalmic Compositions Comprising A Branched, Glycerol Compound” (priority 2006, published 2007)

How the values were obtained:
[1] = system: Pseudomonas aeruginosa (ATCC 9027); test: Preservative/disinfectant system efficacy testing (log reduction); type: cell-based
Procedure: (§1) The ophthalmic compositions are evaluated in accordance with specific procedures outlined by the US Food & Drug Administration and the International Organization for Standardization for the testing of microbiocidal efficacy.

[2] = system: Pseudomonas aeruginosa, Staphylococcus aureus, Serratia marcescens, Candida albicans and Fusarium solani; conditions: biocidal data from Examples 1, 2 and 3
Procedure: as §1

[3] = system: Gram-positive bacteria such as Micrococcus luteus, Corynebacterium aquaticum, Corynebacteriumflavescens, Corynebacterium callunae, and Corynebacterium nephredi; conditions: cited from earlier work

## CCCCC(CC)COCC(O)CO (stereo not shown) [EHOPD, 3-[(2-ethylhexyl)oxy]-1,2-propanediol]
[1]; 1 hr, Table 5A multi-purpose lens care solution, 10% organic soil, disinfectant concentrations as in label
  log reduction P. aeruginosa: 1.4
[1]; 1 hr, phosphate buffered saline, 10% organic soil, concentrations as in label (Table 4)
  log reduction P. aeruginosa: 1.5
[1]; 4 hr, Table 5A multi-purpose lens care solution, 10% organic soil, disinfectant concentrations as in label
  log reduction P. aeruginosa: 1.4
[1]; 4 hr, phosphate buffered saline, 10% organic soil, concentrations as in label (Table 4)
  log reduction P. aeruginosa: 1.5
[1]; EHOPD 0.0001 wt %, 1 hr, borate buffered saline, 10% organic soil
  log reduction P. aeruginosa: 1.5
[1]; EHOPD 0.0001 wt %, 1 hr, phosphate buffered saline, 10% Organic Soil
  log reduction P. aeruginosa: 1.5
[1]; EHOPD 0.0001 wt %, 4 hr, borate buffered saline, 10% organic soil
  log reduction P. aeruginosa: 1.5
[1]; EHOPD 0.0001 wt %, 4 hr, phosphate buffered saline, 10% Organic Soil
  log reduction P. aeruginosa: 1.5
[1]; EHOPD 0.001 wt %, 1 hr, borate buffered saline, 10% organic soil
  log reduction P. aeruginosa: 1.5
[1]; EHOPD 0.001 wt %, 1 hr, phosphate buffered saline, 10% Organic Soil
  log reduction P. aeruginosa: 1.5
[1]; EHOPD 0.001 wt %, 4 hr, borate buffered saline, 10% organic soil
  log reduction P. aeruginosa: 1.5
[1]; EHOPD 0.001 wt %, 4 hr, phosphate buffered saline, 10% Organic Soil
  log reduction P. aeruginosa: 1.5
[1]; EHOPD 0.01 wt %, 1 hr, Table 3A multi-purpose lens care formulation, 10% organic soil
  log reduction P. aeruginosa: 1.9
[1]; EHOPD 0.01 wt %, 1 hr, borate buffered saline, 10% organic soil
  log reduction P. aeruginosa: 2.6
[1]; EHOPD 0.01 wt %, 1 hr, phosphate buffered saline, 10% Organic Soil
  log reduction P. aeruginosa: 1.5
[1]; EHOPD 0.01 wt %, 4 hr, Table 3A multi-purpose lens care formulation, 10% organic soil
  log reduction P. aeruginosa: 1.9
[1]; EHOPD 0.01 wt %, 4 hr, borate buffered saline, 10% organic soil
  log reduction P. aeruginosa: >5.0
[1]; EHOPD 0.01 wt %, 4 hr, phosphate buffered saline, 10% Organic Soil
  log reduction P. aeruginosa: 1.5
[1]; EHOPD 0.1 wt %, 1 hr, Table 3A multi-purpose lens care formulation, 10% organic soil
  log reduction P. aeruginosa: >5.4
[1]; EHOPD 0.1 wt %, 1 hr, borate buffered saline, 10% organic soil
  log reduction P. aeruginosa: >5.0
[1]; EHOPD 0.1 wt %, 1 hr, phosphate buffered saline, 10% Organic Soil
  log reduction P. aeruginosa: 1.5
[1]; EHOPD 0.1 wt %, 4 hr, Table 3A multi-purpose lens care formulation, 10% organic soil
  log reduction P. aeruginosa: >5.4
[1]; EHOPD 0.1 wt %, 4 hr, borate buffered saline, 10% organic soil
  log reduction P. aeruginosa: >5.0
[1]; EHOPD 0.1 wt %, 4 hr, phosphate buffered saline, 10% Organic Soil
  log reduction P. aeruginosa: 3.7
[1]; EHOPD 0.15 wt %, 1 hr, Table 3A multi-purpose lens care formulation, 10% organic soil
  log reduction P. aeruginosa: >5.4
[1]; EHOPD 0.15 wt %, 4 hr, Table 3A multi-purpose lens care formulation, 10% organic soil
  log reduction P. aeruginosa: >5.4
[1]; EHOPD 0.25 wt %, 1 hr, Table 3A multi-purpose lens care formulation, 10% organic soil
  log reduction P. aeruginosa: >5.4
[1]; EHOPD 0.25 wt %, 4 hr, Table 3A multi-purpose lens care formulation, 10% organic soil
  log reduction P. aeruginosa: >5.4
[1]; EHOPD 0.50 wt %, 1 hr, Table 3A multi-purpose lens care formulation, 10% organic soil
  log reduction P. aeruginosa: >5.4
[1]; EHOPD 0.5 wt %, 1 hr, borate buffered saline, 10% organic soil
  log reduction P. aeruginosa: >5.0
[1]; EHOPD 0.5 wt %, 1 hr, phosphate buffered saline, 10% Organic Soil
  log reduction P. aeruginosa: 1.5
[1]; EHOPD 0.50 wt %, 4 hr, Table 3A multi-purpose lens care formulation, 10% organic soil
  log reduction P. aeruginosa: >5.4
[1]; EHOPD 0.5 wt %, 4 hr, borate buffered saline, 10% organic soil
  log reduction P. aeruginosa: >5.0
[1]; EHOPD 0.5 wt %, 4 hr, phosphate buffered saline, 10% Organic Soil
  log reduction P. aeruginosa: 4.1
[1]; EHOPD 0.75 wt %, 1 hr, Table 3A multi-purpose lens care formulation, 10% organic soil
  log reduction P. aeruginosa: >5.4
[1]; EHOPD 0.75 wt %, 4 hr, Table 3A multi-purpose lens care formulation, 10% organic soil
  log reduction P. aeruginosa: >5.4
[1]; EHOPD 1.0 wt %, 1 hr, Table 3A multi-purpose lens care formulation, 10% organic soil
  log reduction P. aeruginosa: >5.4
[1]; EHOPD 1.0 wt %, 4 hr, Table 3A multi-purpose lens care formulation, 10% organic soil
  log reduction P. aeruginosa: >5.4
[2]
  biocidal activity (in words): significant activity against all of the microorganisms in the study
[3]
  antimicrobial activity (known, in words): exhibit antimicrobial activity against a variety of Gram-positive bacteria
